This is an account of results in patent US20240228497A1, “Pyrrolo[2, 3-b]Pyrazine-Based Bifunctional Compounds as HPK1 Degraders and the Use Thereof” (BeiGene, Ltd., priority 2021, published 2024).

The IC50 is the concentration needed to halve the response being measured. As usually defined, the DC50 is the midpoint of the concentration-degradation curve. A low value points to a more potent degrader. By Dmax is commonly meant the largest share of the target that was removed. Lower therefore signals a partial loss of target.

The target of assay [1] is T1, HPK1 kinase (aa1-346, Life Technologies) (Homo sapiens, UniProt Q92918).
T1 construct: HPK1 kinase (aa1-346, Life Technologies); purchased Life Technologies
T1 sequence (Q92918 1-346): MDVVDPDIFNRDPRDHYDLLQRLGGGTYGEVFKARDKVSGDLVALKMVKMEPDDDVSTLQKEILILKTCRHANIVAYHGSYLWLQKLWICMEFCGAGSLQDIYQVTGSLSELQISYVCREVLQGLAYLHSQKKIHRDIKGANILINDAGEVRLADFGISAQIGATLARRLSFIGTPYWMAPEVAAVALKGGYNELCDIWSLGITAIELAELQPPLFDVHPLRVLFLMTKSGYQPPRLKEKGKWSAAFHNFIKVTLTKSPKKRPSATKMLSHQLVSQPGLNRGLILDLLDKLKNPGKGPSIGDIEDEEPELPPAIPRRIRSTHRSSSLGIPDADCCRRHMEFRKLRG
The assay is described as follows: HPK Kinase Activity Assay at 1 mM ATP (TR-FRET). The settings on record: HPK1 kinase 40 nM, 0.5 μM STK1 substrate, 60 min preincubation, read-out: Enzymatic activity IC50. In kind it is biochemical. The procedure: HPK Kinase Activity Assay at 1 mM ATP
Compounds disclosed herein were tested for inhibition of HPK1 kinase (aa1-346, Life Technologies) activity in assays based on the time-resolved fluorescence-resonance energy transfer (TR-FRET) methodology. The assays were carried out in 384-well low volume black plates in a reaction mixture containing HPK1 kinase (40 nM), 1 mM ATP, 0.5 μM STK1 substrate and 0-10 μM compound in buffer containing 50 mM HEPES, 0.01% BSA, 0.1 mM Orthovanadate, 10 mM MgCl2, 1 mM DTT, pH=7.0, 0.005% Tween-20. The kinase was incubated with the compounds disclosed herein or DMSO for 60 minutes at room temperature and the reaction was initiated by the addition of ATP and STK1 substrate. After reaction at room temperature for 120 minutes, an equal volume of stop/detection solution was added according to the manufacture's instruction (CisBio). The stop/detection solution contained STK Antibody—Cryptate and XL665-conjugated streptavidin in Detection Buffer. The TR-FRET signals (ratio of fluorescence emission at 665 nm over emission at 620 nm with excitation at 337 nm wavelength) were recorded on a PHERAstar FS plate reader (BMG Labtech). Phosphorylation of STK1 substrate led to the binding of STK Antibody—Cryptate to the biotinylated STK1 substrate, which places fluorescent donor (Eu^3+ crypate) in close proximity to the accepter (Streptavidin-XL665), thus resulting in a high degree of fluorescence resonance energy transfer. The inhibition of HPK1 in presence of increasing concentrations of compounds was calculated based on the ratio of fluorescence at 665 nm to that at 620 nm. IC50 determination was performed by fitting the curve of percent inhibition versus the log of the inhibitor concentration using Dotmatics.
A general note: In TR-FRET formats the signal depends on donor and acceptor labels being close together.

The test system of assay [2] is pSLP76 (S376) level in Jurkat cell line. The assay is described as follows: Cellular pSLP76(S376) HTRF Assay in Jurkat cells. Format: cell-based. The settings on record: 2 h compound treatment, stimulated with 0.05 μg/mL anti-human CD3 (OKT3) for 30 min. The procedure:
Cellular pSLP76(S376) HTRF Assay
Jurkat cell line was used in this study. Cells were maintained in RPMI 1640 supplemented with heat-inactivated 10% fetal bovine serum (Thermo Fisher), 50 units/mL penicillin and streptomycin (Thermo Fisher) and kept at 37° C. in a humidified atmosphere of 5% CO2 in air. Cells were reinstated from frozen stocks that were laid down within 30 passages from the original cells purchased. After cell starvation in the assay buffer (RPMI 1640 supplemented with heat-inactivated 0.1% fetal bovine serum) for 18 hours, cells were seeded into a round bottom 96-well plate at 150,000 cells per well density. Cells were treated with a 9-point dilution series of test compounds. The final compound concentration is from 0 to 2 μM. After 2 h compound treatment, cells were stimulated with 0.05 μg/mL anti-human CD3 (OKT3, Bioxcell) for 30 min at 37° C. Then the cells were lysed, and the pSLP76 (S376) level in the cell lysates was detected by HTRF kit (Cisbio). A total of 16 μL of cell lysate from each well of a 96-well plate was transferred to a 384-well small volume white assay plate. Lysate from each well was incubated with 2 μL of Eu^3+-cryptate (donor) labeled anti-phospho-SLP76 and 2 μL of D2 (acceptor) labeled anti-phospho-SLP76 antibodies (Cisbio) overnight in dark at room temperature. FRET signals (655 nm) were measured using a PHERAstar FSX reader (BMG Labtech). IC50 determination was performed by fitting the curve of percent inhibition versus the log of the inhibitor concentration using Dotmatics.

In a further assay the target is T2, HPK1 protein (Homo sapiens, UniProt Q92918).
T2 construct: host or cells: human PBMC (CD4+ and CD8+ T cells gated in the FACS assay)
T2 sequence (Q92918 whole entry): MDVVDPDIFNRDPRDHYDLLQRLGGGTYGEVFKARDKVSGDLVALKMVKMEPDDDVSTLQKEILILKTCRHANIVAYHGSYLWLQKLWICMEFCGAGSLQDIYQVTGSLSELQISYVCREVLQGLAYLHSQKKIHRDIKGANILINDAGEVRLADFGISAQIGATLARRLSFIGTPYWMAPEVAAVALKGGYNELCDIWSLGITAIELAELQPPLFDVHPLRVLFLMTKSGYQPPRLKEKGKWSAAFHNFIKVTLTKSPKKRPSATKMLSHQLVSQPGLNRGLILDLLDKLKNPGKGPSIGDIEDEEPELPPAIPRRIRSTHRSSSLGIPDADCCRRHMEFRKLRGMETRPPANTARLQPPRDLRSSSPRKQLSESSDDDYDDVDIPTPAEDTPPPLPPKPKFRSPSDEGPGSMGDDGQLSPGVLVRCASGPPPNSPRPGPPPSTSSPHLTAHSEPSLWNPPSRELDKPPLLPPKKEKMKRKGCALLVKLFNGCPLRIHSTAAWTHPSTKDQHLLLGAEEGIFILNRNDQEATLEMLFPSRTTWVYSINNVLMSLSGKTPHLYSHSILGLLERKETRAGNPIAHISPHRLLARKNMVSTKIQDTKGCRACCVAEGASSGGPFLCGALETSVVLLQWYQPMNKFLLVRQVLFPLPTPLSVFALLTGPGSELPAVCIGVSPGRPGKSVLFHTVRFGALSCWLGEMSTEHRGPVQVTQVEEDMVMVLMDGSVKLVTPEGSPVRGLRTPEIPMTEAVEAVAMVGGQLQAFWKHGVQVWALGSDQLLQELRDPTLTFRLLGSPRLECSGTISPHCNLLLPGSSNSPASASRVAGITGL
The assay is described as follows: HPK1 Protein Degradation Assay in Human PBMC (Western Blot). Format: cell-based. The settings on record: 24 h compound incubation. The procedure:
HPK1 Protein Degradation Assay in Human PBMC (Western Blot)
Human PBMCs (AllCells) was used in this study. Cells were thawed one day in advance and maintained in RPMI-1640 supplemented 10% fetal bovine serum (Thermo Fisher), 50 units/mL penicillin and streptomycin (Thermo Fisher) and the mixture was kept at 37° C. in a humidified atmosphere air containing 5% CO2. 3×10^6 PBMCs per well in 1 mL culture medium were seeded in the 12-well plate, and the cells were treated with an appropriate dilution series of compounds with a final concentration up to […]. After 24 h of compound incubation, the medium was aspirated, the cells were washed with PBS, and then 30 μL of 1X protein lysis buffer (Cell Signaling Technology) containing protease inhibitors (Merck) and phosphatase inhibitors (Sigma) was added. The cells were lysed. After centrifugation, the supernatants were quantified by BCA protein assay kit (Thermo Fisher). 4X loading Buffer (Thermo Fisher) was added to equal amounts of total protein from each sample and heated at 95° C. for 5 minutes. 30-50 μg of cell lysate was loaded onto a 4%-12% NuPAGE Bis-Tris Gel (Thermo Fisher) and electro-transferred to NC membranes (Thermo Fisher). The membranes were blocked for least 1 hour with blocking reagent (LI-COR), and then incubated overnight with anti-HPK1 (Cell Signaling Technology, 4472S) antibodies and as loading control anti-ß-actin (Cell Signaling Technology, 3700S) or anti-GAPDH (Cell Signaling Technology, 97166S) at 4° C. with gentle shaking. The membranes were washed three times with TBST, and incubated at least 1 hour at room temperature with anti-mouse or anti-rabbit secondary fluorescent antibody (Thermo Fisher, A32729; LI—COR, 926-32213). Then the membranes were washed three times in TBST, and one time in water. Immunoreactive bands were visualized by Odyssey CLx and analyzed by GraphPad Prism 8.

`Cc1cc(-c2c[nH]c3ncc(-c4cc(C)c5c(c4)CCN(CCNC(=O)C4CCN(c6ccc7c(c6)C(=O)N(C6CCC(=O)NC6=O)C7=O)CC4)C5)nc23)ccc1C(=O)N(C)C` (centres unmarked) [Example 1, N-(2-(6-(7-(4-(dimethylcarbamoyl)-3-methylphenyl)-5H-pyrrolo[2,3-b]pyrazin-2-yl)-8-methyl-3,4-dihydroisoquinolin-2(1H)-yl)ethyl)-1-(2-(2,6-dioxopiperidin-3-yl)-1,3-dioxoisoindolin-5-yl)piperidine-4-carboxamide]: the IC50 in assay [1] is 121 nM. This compound also displayed an IC50 in assay [2] of 879 nM. Also, on HPK1 protein, the DC50 was found to be 183 nM, the Dmax was 47% and the “Protein degradation DC90” value turned out to be 3805 nM.

Take `Cc1cc(-c2c[nH]c3ncc(-c4cc(C)c5c(c4)CCN(CCC(=O)NCC4CCN(c6ccc(C7CCC(=O)NC7=O)cc6)CC4)C5)nc23)ccc1C(=O)N(C)C` (centres unmarked) [Example 2, 4-(2-(2-(3-(((1-(4-(2,6-dioxopiperidin-3-yl)phenyl)piperidin-4-yl)methyl)amino)-3-oxopropyl)-8-methyl-1,2,3,4-tetrahydroisoquinolin-6-yl)-5H-pyrrolo[2,3-b]pyrazin-7-yl)-N,N,2-trimethylbenzamide]: the IC50 in assay [1] was found to be 253 nM. The compound further displayed a concentration for half-maximal inhibition (IC50) in assay [2] of 515 nM. In addition, on HPK1 protein, half-maximal degradation (DC50) was put at 87 nM, the Dmax stood at 91% and the “Protein degradation DC90” value is reported as 294 nM.

Regarding `Cc1cc(-c2c[nH]c3ncc(-c4cc(C)c5c(c4)CCN(CCC(=O)N4CCN(c6ccc(N7CCC(=O)NC7=O)cc6)CC4)C5)nc23)ccc1C(=O)N(C)C` [Example 3, 4-(2-(2-(3-(4-(4-(2,4-dioxotetrahydropyrimidin-1(2H)-yl)phenyl)piperazin-1-yl)-3-oxopropyl)-8-methyl-1,2,3,4-tetrahydroisoquinolin-6-yl)-5H-pyrrolo[2,3-b]pyrazin-7-yl)-N,N,2-trimethylbenzamide], the IC50 in assay [1] came to 61 nM. This compound had an IC50 in assay [2] of 193 nM. Also, at HPK1 protein, the half-maximal degradation concentration (DC50) was 23 nM, the greatest degradation seen (Dmax) stood at 97% and the “Protein degradation DC90” value is on record as 215 nM.

With `Cc1cc(-c2c[nH]c3ncc(-c4cc(C)c5c(c4)CCN(CCC(=O)NC4CCN(c6ccc(N7CCC(=O)NC7=O)cc6)CC4)C5)nc23)ccc1C(=O)N(C)C` [Example 4, 4-(2-(2-(3-((1-(4-(2,4-dioxotetrahydropyrimidin-1(2H)-yl)phenyl)piperidin-4-yl)amino)-3-oxopropyl)-8-methyl-1,2,3,4-tetrahydroisoquinolin-6-yl)-5H-pyrrolo[2,3-b]pyrazin-7-yl)-N,N,2-trimethylbenzamide], the IC50 in assay [1] is 140 nM. In addition, the IC50 in assay [2] stood at 459 nM. At HPK1 protein, the 50% degradation concentration (DC50) was determined as 59 nM, the Dmax came to 95% and the “Protein degradation DC90” value worked out at 817 nM.
